Data reported in ChEMBL document CHEMBL5223113, “Several non-salt and solid thienopyridine derivatives as oral P2Y12 receptor inhibitors with good stability” (Bioorg Med Chem Lett, 2022).

Tests used:
[1] = Stability in human plasma assessed as compound remaining measured at 180 mins relative to control; assay type: ADME, cell-free; settings: read-out: Stability
[2] = Toxicity in beagle dog assessed as abnormality in blood and biochemical index at 2000 mg/kg oral gavage observed for 14 days; assay type: organism-based, Canis lupus familiaris; settings: in vivo, 336 h, time 14 day
[3] = Toxicity in beagle dog assessed as death at 2000 mg/kg oral gavage observed for 14 days; assay type: organism-based, Canis lupus familiaris; settings: in vivo, 336 h, time 14 day
[4] = Stability in human plasma assessed as compound remaining measured at 45 mins relative to control; assay type: ADME, cell-free; settings: read-out: Stability
[5] = Toxicity in beagle dog assessed as mydriasis at 100 mg/kg/day oral gavage observed for 14 days; assay type: organism-based, Canis lupus familiaris; settings: in vivo, 336 h, time 14 day
[6] = tested on: Rattus norvegicus; experiment: Inhibition of thrombosis in anteriovenous bypassed rat at 1 mg/kg relative to control; assay type: functional
[7] = Toxicity in beagle dog assessed as emesis at 100 mg/kg/day oral gavage observed for 14 days; assay type: organism-based, Canis lupus familiaris; settings: in vivo, 336 h, time 14 day
[8] = Stability in human plasma assessed as compound remaining measured at 120 mins relative to control; assay type: ADME, cell-free; settings: read-out: Stability
[9] = tested on: Rattus norvegicus; experiment: Inhibition of thrombosis in anteriovenous bypassed rat at 10 mg/kg relative to control; assay type: functional
[10] = Stability in human plasma assessed as compound remaining measured at 150 mins relative to control; assay type: ADME, cell-free; settings: read-out: Stability
[11] = Toxicity in beagle dog assessed as increase in ALP at 100 mg/kg/day oral gavage observed for 14 days; assay type: organism-based, Canis lupus familiaris; settings: in vivo, 336 h, time 14 day
[12] = Toxicity in beagle dog assessed as electrocardiogram at 100 to 300 mg/kg/day oral gavage observed for 14 days; assay type: organism-based, Canis lupus familiaris; settings: in vivo, 336 h, dose 100-300 mg/kg/day, time 14 day
[13] = tested on: Rattus norvegicus; experiment: Anti-platelet activity against ADP-induced platelet aggregation in rat assessed as inhibition of platelet aggregation at 1 mg/kg relative to control; assay type: functional
[14] = Toxicity in beagle dog assessed as decrease in platelet aggregation at 100 mg/kg/day oral gavage observed for 14 days; assay type: organism-based, Canis lupus familiaris; settings: in vivo, 336 h, time 14 day
[15] = tested on: Rattus norvegicus; experiment: Inhibition of thrombosis in anteriovenous bypassed rat at 30 mg/kg relative to control; assay type: functional
[16] = Toxicity in beagle dog assessed as ALT level at 100 to 300 mg/kg/day oral gavage observed for 14 days; assay type: organism-based, Canis lupus familiaris; settings: in vivo, 336 h, dose 100-300 mg/kg/day, time 14 day
[17] = Stability in human plasma assessed as compound remaining measured at 240 mins relative to control; assay type: ADME, cell-free; settings: read-out: Stability
[18] = Stability in human plasma assessed as compound remaining measured at 30 mins relative to control; assay type: ADME, cell-free; settings: read-out: Stability
[19] = Stability in human plasma assessed as compound remaining measured at 10 mins relative to control; assay type: ADME, cell-free; settings: read-out: Stability
[20] = Stability in human plasma assessed as compound remaining measured at 360 mins relative to control; assay type: ADME, cell-free; settings: read-out: Stability
[21] = Stability in human plasma assessed as compound remaining measured at 300 mins relative to control; assay type: ADME, cell-free; settings: read-out: Stability
[22] = Stability in human plasma assessed as compound remaining measured at 5 mins relative to control; assay type: ADME, cell-free; settings: read-out: Stability
[23] = Toxicity in beagle dog assessed as increase in liver weight at 100 mg/kg/day oral gavage observed for 14 days; assay type: organism-based, Canis lupus familiaris; settings: in vivo, 336 h, time 14 day
[24] = Toxicity in beagle dog assessed as electrocardiogram at 2000 mg/kg oral gavage observed for 14 days; assay type: organism-based, Canis lupus familiaris; settings: in vivo, 336 h, time 14 day
[25] = Stability in human plasma assessed as compound remaining measured at 60 mins relative to control; assay type: ADME, cell-free; settings: read-out: Stability
[26] = Stability in human plasma assessed as compound remaining measured at 90 mins relative to control; assay type: ADME, cell-free; settings: read-out: Stability
[27] = tested on: Rattus norvegicus; experiment: Inhibition of thrombosis in anteriovenous bypassed rat at 3 mg/kg relative to control; assay type: functional
[28] = Toxicity in beagle dog assessed as vomiting at 100 to 300 mg/kg/day oral gavage observed for 14 days; assay type: organism-based, Canis lupus familiaris; settings: in vivo, 336 h, dose 100-300 mg/kg/day, time 14 day
[29] = Toxicity in beagle dog assessed as swelling of hepatocyte at 100 mg/kg/day oral gavage observed for 14 days; assay type: organism-based, Canis lupus familiaris; settings: hepatocytes, 336 h, time 14 day
[30] = species: Rattus norvegicus; experiment: Inhibition of thrombosis in anteriovenous bypassed rat; assay type: functional
[31] = tested on: Rattus norvegicus; experiment: Anti-platelet activity against ADP-induced platelet aggregation in rat assessed as inhibition of platelet aggregation at 2 mg/kg relative to control; assay type: functional
[32] = Toxicity in beagle dog assessed as dilated pupil at 100 to 300 mg/kg/day oral gavage observed for 14 days; assay type: organism-based, Canis lupus familiaris; settings: in vivo, 336 h, dose 100-300 mg/kg/day, time 14 day
[33] = tested on: Rattus norvegicus; experiment: Anti-platelet activity against ADP-induced platelet aggregation in rat assessed as inhibition of platelet aggregation at 0.5 mg/kg relative to control; assay type: functional
[34] = Toxicity in rat assessed as bleeding time by measuring ratio of ED200 to ED50 ratio by tail cutting assay; settings: in vivo
[35] = Toxicity in rat assessed as bleeding time by tail cutting assay; settings: in vivo
[36] = Stability in human plasma assessed as compound remaining measured at 20 mins relative to control; assay type: ADME, cell-free; settings: read-out: Stability
[37] = Toxicity in beagle dog assessed as ALP level at 100 to 300 mg/kg/day oral gavage observed for 14 days; assay type: organism-based, Canis lupus familiaris; settings: in vivo, 336 h, dose 100-300 mg/kg/day, time 14 day
[38] = Toxicity in beagle dog assessed as abnormality in blood and biochemical index at 100 to 300 mg/kg/day oral gavage observed for 14 days; assay type: organism-based, Canis lupus familiaris; settings: in vivo, 336 h, dose 100-300 mg/kg/day, time 14 day
[39] = tested on: Rattus norvegicus; experiment: Anti-platelet activity against ADP-induced platelet aggregation in rat assessed as inhibition of platelet aggregation at 3 mg/kg relative to control; assay type: functional
[40] = tested on: Rattus norvegicus; experiment: Anti-platelet activity against ADP-induced platelet aggregation in rat assessed as inhibition of platelet aggregation at 1.5 mg/kg relative to control; assay type: functional
[41] = tested on: Rattus norvegicus; experiment: Anti-platelet activity against ADP-induced platelet aggregation in rat assessed as inhibition of platelet aggregation at 0.75 mg/kg relative to control; assay type: functional
[42] = species: Rattus norvegicus; experiment: Anti-platelet activity against ADP-induced platelet aggregation in rat assessed as inhibition of platelet aggregation; assay type: functional
[43] = tested on: Rattus norvegicus; experiment: Anti-platelet activity against ADP-induced platelet aggregation in rat assessed as inhibition of platelet aggregation at 4 mg/kg relative to control; assay type: functional
[44] = tested on: Rattus norvegicus; experiment: Anti-platelet activity against ADP-induced platelet aggregation in rat assessed as inhibition of platelet aggregation at 8 mg/kg relative to control; assay type: functional

In the case of C/C=C/C(=O)Oc1cc2c(s1)CCN([C@H](C(=O)OC)c1ccccc1Cl)C2, the remaining at 3 h [1] was 0.231%, the Activity [2] was “Non-Toxic” and the Activity [3] was “Non-Toxic”. The remaining at 0.75 h [4] was 28%, the Activity [5] was “Toxic” and the inhibition in vivo at 1 mg/kg [6] was 18.3%. For the same compound, the Activity [7] was “Toxic”, the remaining at 2 h [8] was 1.7% and the inhibition in vivo at 10 mg/kg [9] was 56%. The remaining at 2.5 h [10] was 0.588%, the Activity [11] was “Toxic” and the Activity [12] was “Non-Toxic”. For the same compound, the inhibition in vivo at 1 mg/kg [13] was 50.2%, the Activity [14] was “Toxic” and the inhibition in vivo at 30 mg/kg [15] was 64.2%. The Activity [16] was “Non-Toxic”, the remaining at 4 h [17] was 0% and the remaining at 0.5 h [18] was 44.7%. The remaining at 10 min [19] was 82.3%, the remaining at 6 h [20] was 0% and the remaining at 5 h [21] was 0%. The remaining at 5 min [22] was 91.7%, the Activity [23] was “Toxic” and the Activity [24] was “Non-Toxic”. For the same compound, the remaining at 1 h [25] was 18.3%, the remaining at 1.5 h [26] was 5.49% and the inhibition in vivo at 3 mg/kg [27] was 43.2%. For the same compound, the Activity [28] was “Non-Toxic”, the Activity [29] was “Toxic” and the ED50 [30] was 11.8 mg/kg. For the same compound, the inhibition in vivo at 2 mg/kg [31] was 77%, the Activity [32] was “Non-Toxic” and the inhibition in vivo at 0.5 mg/kg [33] was 22.4%. The selectivity ratio [34] was 1.97, the ED200 [35] was 1.977 mg/kg and the remaining at 20 min [36] was 60.5%. The Activity [37] was “Non-Toxic” and the Activity [38] was “Non-Toxic”.
With C/C=C/C=C/C(=O)Oc1cc2c(s1)CCN([C@H](C(=O)OC)c1ccccc1Cl)C2 the remaining at 3 h [1] was 43%, the Activity [2] was “Non-Toxic” and the Activity [3] was “Non-Toxic”. For the same compound, the remaining at 0.75 h [4] was 83.9%, the Activity [5] was “Toxic” and the inhibition in vivo at 1 mg/kg [6] was 36.5%. The Activity [7] was “Toxic”, the remaining at 2 h [8] was 62.9% and the inhibition in vivo at 10 mg/kg [9] was 52.1%. For the same compound, the remaining at 2.5 h [10] was 46.7%, the Activity [11] was “Toxic” and the Activity [12] was “Non-Toxic”. The Activity [14] was “Toxic”, the inhibition in vivo at 30 mg/kg [15] was 68.6% and the inhibition in vivo at 3 mg/kg [39] was 85.8%. For the same compound, the Activity [16] was “Non-Toxic”, the remaining at 4 h [17] was 30% and the remaining at 0.5 h [18] was 86.6%. For the same compound, the inhibition in vivo at 1.5 mg/kg [40] was 50.8%, the remaining at 10 min [19] was 92.8% and the remaining at 6 h [20] was 14.8%. The remaining at 5 h [21] was 20.9%, the remaining at 5 min [22] was 93.5% and the Activity [23] was “Toxic”. For the same compound, the Activity [24] was “Non-Toxic”, the remaining at 1 h [25] was 76.8% and the remaining at 1.5 h [26] was 63.8%. The inhibition in vivo at 3 mg/kg [27] was 40.3%, the Activity [28] was “Non-Toxic” and the Activity [29] was “Toxic”. The ED50 [30] was 11.8 mg/kg, the Activity [32] was “Non-Toxic” and the selectivity ratio [34] was 0.52. The ED200 [35] was 0.822 mg/kg, the remaining at 20 min [36] was 97.1% and the Activity [37] was “Non-Toxic”. For the same compound, the Activity [38] was “Non-Toxic” and the inhibition in vivo at 0.75 mg/kg [41] was 7%.
Compound CC/C=C/C(=O)Oc1cc2c(s1)CCN([C@H](C(=O)OC)c1ccccc1Cl)C2 has an ED50 [42] of 1.23 mg/kg, an inhibition in vivo at 1 mg/kg [13] of 38.2% and an inhibition in vivo at 4 mg/kg [43] of 78.4%. The inhibition in vivo at 2 mg/kg [31] was 62.9%, the inhibition in vivo at 0.5 mg/kg [33] was 26.2% and the inhibition in vivo at 8 mg/kg [44] was 100%.
